Measurements as given in patent publication US12396981B2 (priority 2023, dated 2025).
Where “and” joins values, the source holds several entries; their conditions need not be identical. Identical values can stand only once.

Assays:
[1] = molecular target: Tropomyosin receptor kinase B (TrkB) (Homo sapiens, UniProt Q16620); conditions: Moliner 2023; cited from earlier work
[2] = test system: NMDA receptors; conditions: Moliner 2023; cited from earlier work
[3] = cited from earlier work
[4] = comparable to psilocin; Jones 2024; cited from earlier work
[5] = molecular target: 5-HT1D (Homo sapiens, UniProt P28221); conditions: Halberstadt & Geyer 2011; cited from earlier work
Sequence of 5-HT1D (P28221 whole entry, species assumed): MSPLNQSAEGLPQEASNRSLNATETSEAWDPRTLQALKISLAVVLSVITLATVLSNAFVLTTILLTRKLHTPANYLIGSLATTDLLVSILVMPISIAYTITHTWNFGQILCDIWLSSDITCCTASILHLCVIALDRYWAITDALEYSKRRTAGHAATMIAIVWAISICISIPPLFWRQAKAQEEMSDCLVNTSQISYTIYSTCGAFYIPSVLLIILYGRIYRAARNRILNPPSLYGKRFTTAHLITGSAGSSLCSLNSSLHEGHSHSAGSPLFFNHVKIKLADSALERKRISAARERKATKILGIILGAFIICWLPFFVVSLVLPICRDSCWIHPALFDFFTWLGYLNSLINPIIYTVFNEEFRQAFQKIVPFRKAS

[6] = molecular target: 5-HT1B (Homo sapiens, UniProt P28222); conditions: Halberstadt & Geyer 2011; cited from earlier work
Sequence of 5-HT1B (P28222 whole entry, species assumed): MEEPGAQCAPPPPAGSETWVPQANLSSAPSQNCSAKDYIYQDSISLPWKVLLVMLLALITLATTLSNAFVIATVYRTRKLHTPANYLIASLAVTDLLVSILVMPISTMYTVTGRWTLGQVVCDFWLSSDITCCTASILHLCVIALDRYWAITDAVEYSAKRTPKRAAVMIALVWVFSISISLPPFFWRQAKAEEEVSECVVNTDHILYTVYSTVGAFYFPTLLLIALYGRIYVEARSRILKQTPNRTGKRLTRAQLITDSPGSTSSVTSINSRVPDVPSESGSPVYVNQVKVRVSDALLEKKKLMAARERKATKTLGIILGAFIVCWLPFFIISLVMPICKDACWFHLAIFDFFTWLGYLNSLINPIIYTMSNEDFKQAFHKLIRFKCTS

[7] = molecular target: sigma-1 receptor (Homo sapiens, UniProt Q99720); conditions: Fontanilla 2009; Ray 2010; cited from earlier work
Sequence of sigma-1 receptor (Q99720 whole entry, species assumed): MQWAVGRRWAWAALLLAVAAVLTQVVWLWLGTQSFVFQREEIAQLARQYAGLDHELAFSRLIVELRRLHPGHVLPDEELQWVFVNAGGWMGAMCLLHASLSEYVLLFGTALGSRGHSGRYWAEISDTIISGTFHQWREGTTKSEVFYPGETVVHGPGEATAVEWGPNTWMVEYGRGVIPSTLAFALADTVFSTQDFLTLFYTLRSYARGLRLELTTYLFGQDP

[8] = molecular target: 5-HT5A (Homo sapiens, UniProt P47898); conditions: Halberstadt & Geyer 2011; cited from earlier work
Sequence of 5-HT5A (P47898 whole entry, species assumed): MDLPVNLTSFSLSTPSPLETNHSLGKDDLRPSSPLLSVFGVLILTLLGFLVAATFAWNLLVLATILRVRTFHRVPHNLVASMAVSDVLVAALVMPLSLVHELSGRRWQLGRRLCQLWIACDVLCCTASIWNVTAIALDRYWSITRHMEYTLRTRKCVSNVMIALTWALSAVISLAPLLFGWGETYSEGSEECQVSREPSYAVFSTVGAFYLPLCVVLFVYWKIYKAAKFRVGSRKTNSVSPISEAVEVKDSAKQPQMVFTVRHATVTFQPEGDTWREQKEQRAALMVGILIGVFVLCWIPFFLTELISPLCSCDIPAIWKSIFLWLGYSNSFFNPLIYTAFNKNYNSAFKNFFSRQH

[9] = molecular target: 5-HT6 (Homo sapiens, UniProt P50406); conditions: Halberstadt & Geyer 2011; cited from earlier work
Sequence of 5-HT6 (P50406 whole entry, species assumed): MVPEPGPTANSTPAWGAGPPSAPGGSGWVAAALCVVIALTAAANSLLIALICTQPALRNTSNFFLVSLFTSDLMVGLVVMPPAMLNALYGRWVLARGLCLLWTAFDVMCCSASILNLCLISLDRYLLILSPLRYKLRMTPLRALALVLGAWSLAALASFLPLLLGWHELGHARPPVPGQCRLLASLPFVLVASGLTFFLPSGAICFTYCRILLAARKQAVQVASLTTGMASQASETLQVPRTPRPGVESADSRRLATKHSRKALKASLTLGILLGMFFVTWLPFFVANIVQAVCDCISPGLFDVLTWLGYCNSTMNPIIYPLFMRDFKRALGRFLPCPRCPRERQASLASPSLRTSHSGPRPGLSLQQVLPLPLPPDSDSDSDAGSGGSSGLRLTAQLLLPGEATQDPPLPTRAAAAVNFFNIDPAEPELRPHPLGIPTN

[10] = Challenging Experience Questionnaire (CEQ) after inhaling DMT according to a disclosed method; format: in vivo, human
From the text: (§1) The study included nine participants with the following demographic characteristics:
(§2) For the MEQ and CEQ higher scores indicate a more mystical experience and a more challenging experience, respectively.

[11] = molecular target: 5-HT2A (Homo sapiens, UniProt P28223); conditions: Halberstadt & Geyer 2011; cited from earlier work
Sequence of 5-HT2A (P28223 whole entry): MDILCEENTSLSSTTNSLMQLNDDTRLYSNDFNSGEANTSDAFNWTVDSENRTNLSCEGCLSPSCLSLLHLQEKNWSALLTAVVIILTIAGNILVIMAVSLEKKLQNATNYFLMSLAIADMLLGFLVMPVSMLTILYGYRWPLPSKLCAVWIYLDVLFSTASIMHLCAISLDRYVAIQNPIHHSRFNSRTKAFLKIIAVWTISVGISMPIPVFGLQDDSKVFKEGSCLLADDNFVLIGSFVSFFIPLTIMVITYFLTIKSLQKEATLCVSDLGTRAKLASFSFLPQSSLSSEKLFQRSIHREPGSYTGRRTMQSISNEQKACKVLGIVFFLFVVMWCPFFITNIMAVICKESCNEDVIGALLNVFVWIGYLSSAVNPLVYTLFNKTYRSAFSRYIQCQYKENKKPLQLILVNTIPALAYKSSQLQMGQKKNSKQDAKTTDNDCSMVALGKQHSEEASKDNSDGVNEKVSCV

[12] = Mystical Experience Questionnaire (MEQ30) after inhaling DMT according to a disclosed method; format: in vivo, human
From the text: as §1, §2

[13] = cited from earlier work; remark: listed apart in the source
[14] = molecular target: 5-HT1E (Homo sapiens, UniProt P28566); conditions: Halberstadt & Geyer 2011; cited from earlier work
Sequence of 5-HT1E (P28566 whole entry, species assumed): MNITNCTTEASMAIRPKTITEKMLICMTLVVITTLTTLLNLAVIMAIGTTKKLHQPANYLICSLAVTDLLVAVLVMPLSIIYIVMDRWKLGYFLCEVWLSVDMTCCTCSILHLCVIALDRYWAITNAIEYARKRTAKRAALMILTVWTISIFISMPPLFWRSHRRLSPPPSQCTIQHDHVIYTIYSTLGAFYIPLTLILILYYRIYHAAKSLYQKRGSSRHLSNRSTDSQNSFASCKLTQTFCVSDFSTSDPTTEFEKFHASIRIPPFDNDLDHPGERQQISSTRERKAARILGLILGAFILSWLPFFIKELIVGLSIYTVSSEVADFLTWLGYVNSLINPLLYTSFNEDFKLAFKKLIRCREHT

[15] = molecular target: 5-HT7 (Homo sapiens, UniProt P34969); conditions: Halberstadt & Geyer 2011; cited from earlier work
Sequence of 5-HT7 (P34969 whole entry, species assumed): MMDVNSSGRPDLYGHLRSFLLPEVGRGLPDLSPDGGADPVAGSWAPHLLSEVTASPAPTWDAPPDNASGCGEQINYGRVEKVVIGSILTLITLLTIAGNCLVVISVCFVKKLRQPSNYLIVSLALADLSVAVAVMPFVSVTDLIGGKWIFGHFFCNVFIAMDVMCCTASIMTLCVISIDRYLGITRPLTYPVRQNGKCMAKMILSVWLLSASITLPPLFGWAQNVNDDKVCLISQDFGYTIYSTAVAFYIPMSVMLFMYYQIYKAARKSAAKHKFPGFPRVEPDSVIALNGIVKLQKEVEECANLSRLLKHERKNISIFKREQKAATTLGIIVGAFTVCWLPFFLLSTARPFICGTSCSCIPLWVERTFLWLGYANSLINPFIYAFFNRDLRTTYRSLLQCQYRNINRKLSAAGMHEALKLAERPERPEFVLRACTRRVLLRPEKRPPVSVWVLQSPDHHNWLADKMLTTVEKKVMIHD

[16] = mean over the nine participants
[17] = per participant, r8-r16 = participants 1-9
[18] = MEQ30 item score, c1-c9 = participants 1-9, after inhaled DMT per disclosed method
[19] = mean item score per participant, r7-r15 = participants 1-9
[20] = total per participant, r7-r15 = participants 1-9

Sequence of Tropomyosin receptor kinase B (TrkB) (Q16620 32-822, species assumed): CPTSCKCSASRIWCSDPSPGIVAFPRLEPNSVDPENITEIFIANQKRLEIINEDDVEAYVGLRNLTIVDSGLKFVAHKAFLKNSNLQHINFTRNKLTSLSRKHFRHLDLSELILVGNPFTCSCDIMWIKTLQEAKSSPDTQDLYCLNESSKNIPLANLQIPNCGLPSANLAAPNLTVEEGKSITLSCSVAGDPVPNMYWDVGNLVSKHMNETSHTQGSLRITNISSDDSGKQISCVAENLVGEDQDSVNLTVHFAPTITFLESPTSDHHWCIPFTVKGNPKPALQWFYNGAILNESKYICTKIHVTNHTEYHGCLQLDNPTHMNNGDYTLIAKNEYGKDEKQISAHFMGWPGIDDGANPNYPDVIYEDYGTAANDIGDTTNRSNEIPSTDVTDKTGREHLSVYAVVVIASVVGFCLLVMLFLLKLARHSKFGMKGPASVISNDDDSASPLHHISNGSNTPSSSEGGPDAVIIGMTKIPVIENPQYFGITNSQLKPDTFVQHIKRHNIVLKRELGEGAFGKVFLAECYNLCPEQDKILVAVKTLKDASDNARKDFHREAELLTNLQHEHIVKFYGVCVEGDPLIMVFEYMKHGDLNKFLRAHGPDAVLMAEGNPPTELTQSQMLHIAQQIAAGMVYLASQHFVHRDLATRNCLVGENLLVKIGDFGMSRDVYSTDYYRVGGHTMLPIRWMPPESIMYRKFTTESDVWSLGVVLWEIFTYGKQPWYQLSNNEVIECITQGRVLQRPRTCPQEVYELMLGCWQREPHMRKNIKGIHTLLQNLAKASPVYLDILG

N[C@@]1(c2ccccc2Cl)CCC[C@@H](O)C1=O [2R,6R-hydroxynorketamine]
binding to TrkB [1]: binds to TrkB
affinity to NMDA receptors [2]: low affinity

CNC1(c2ccccc2Cl)CCCCC1=O (stereo not shown) [Ketamine]
binding to TrkB [1]: does directly bind to TrkB

O=C1Nc2ccc(Cl)cc2C(c2ccccc2Cl)=NC1O (racemic) [Lorazepam, ±7-chloro-5-(2-chlorophenyl)-1,3-dihydro-3-hydroxy-2H-1,4-benzodiazepin-2-one]
time of peak plasma concentrations (Tmax) ([3]; after oral administration): about 2 hours
half-life in human plasma ([3]; human plasma): about 12 hours

CC(=O)Oc1cccc2[nH]cc(CCN(C)C)c12 [Psilacetin, 4-acetoxy-N,N-dimethyltryptamine]
duration of subjective effects [4]: 4 to 8 h

CN(C)CCc1c[nH]c2cccc(O)c12 [Psilocin, 4-hydroxy-N,N-dimethyltryptamine]
Ki [5]: 36.4 nM
Ki [6]: 220 nM
binding to the sigma-1 receptor [7]: no affinity

CN(C)CCc1c[nH]c2ccccc12 [DMT, N,N-dimethyltryptamine]
Ki [8]: 2140 nM
Ki [9]: 464 nM
mean participant score, of the maximum score ([10]; Fear, Physical Distress, Insanity, Isolation, Death, and Paranoia subscales): less than 6%
mean participant score on each of the CEQ subscales, of the maximum possible score ([10]; each CEQ subscale): ≤ 10%
Death, Mean (CEQ dimension) [10, 16]: 0.44
Fear, Mean (CEQ dimension) [10, 16]: 1.889
Grief, Mean (CEQ dimension) [10, 16]: 3.11
Insanity, Mean (CEQ dimension) [10, 16]: 0.89
Isolation, Mean (CEQ dimension) [10, 16]: 0.78
Paranoia, Mean (CEQ dimension) [10, 16]: 0.44
Physical Distress, Mean (CEQ dimension) [10, 16]: 0.89
Death (CEQ dimension score) [10, 17]: 1 (2×) and 2 and 0 (6×)
Fear (CEQ dimension score) [10, 17]: 0 (5×) and 5 (3×) and 2
Grief (CEQ dimension score) [10, 17]: 1 and 6 (2×) and 0 (4×) and 12 and 3
Insanity (CEQ dimension score) [10, 17]: 0 (5×) and 3 and 2 (2×) and 1
Isolation (CEQ dimension score) [10, 17]: 0 (7×) and 3 and 4
Paranoia (CEQ dimension score) [10, 17]: 0 (7×) and 2 (2×)
Physical Distress (CEQ dimension score) [10, 17]: 1 (3×) and 5 and 0 (5×)
Ki [11]: 127 nM
Ki [5]: 39 nM
2.1 Experience of amazement. [12, 18]: 3 and 5 and 4
2.4 Experience of ecstasy. [12, 18]: 3 and 5 and 4
2.5 Sense of awe or awesomeness. [12, 18]: 3 and 5 and 4
2.6 Feelings of joy. [12, 18]: 3 and 4 and 5
4.2 Feeling that you could not do justice to your experience by describing it in words. [12, 18]: 4 and 3 and 5
4.3 Feeling that it would be difficult to communicate your own experience to others who have not had similar experiences. [12, 18]: 3 and 4 and 5
Ineffability, mean participant score (MEQ30 dimension) [12, 19]: 5.00 (4×) and 4.00 (3×) and 3.00 (2×)
Mysticism, mean participant score (MEQ30 dimension) [12, 19]: 2.53 and 3.33 and 5.00 and 3.87 and 4.00 (2×) and 4.73 and 1.33 and 3.60
Positive Mood, mean participant score (MEQ30 dimension) [12, 19]: 4.33 (2×) and 3.50 (2×) and 4.83 and 4.50 and 2.67 (2×) and 5.00
Transcendence, mean participant score (MEQ30 dimension) [12, 19]: 2.83 and 5.00 (2×) and 3.83 and 4.00 and 1.50 and 2.67 and 3.50
Ineffability, Mean (MEQ30 dimension) [12, 16]: 4.22
Mysticism, Mean (MEQ30 dimension) [12, 16]: 3.60
Positive Mood, Mean (MEQ30 dimension) [12, 16]: 3.93
Transcendence, Mean (MEQ30 dimension) [12, 16]: 3.35
participants with a score >= 60% of the maximum score on the Ineffability subscale ([12]; nine participants): 100%
participants with a score >= 60% of the maximum score on the Mystical and Positive Mood subscales ([12]; nine participants): 78%
participants with a score >= 60% of the maximum score on the Transcendence of Time and Space subscale ([12]; nine participants): 55%
participants with a score >= 75% of the maximum score on the Ineffability subscale ([12]; nine participants): 78%
participants with a score >= 75% of the maximum score on the Transcendence of Time and Space subscale ([12]; nine participants): 44%
participants with a score >= 75% of the maximum scores on the Mystical and Positive Mood subscales ([12]; nine participants): 55%
participants with a score of greater than or equal to 60% on at least one MEQ30 subscale ([12]; nine participants): all participants
Ineffability, total score (MEQ30 subscale) [12, 20]: 15 (4×) and 12 (3×) and 9 (2×)
Mysticism, total score (MEQ30 subscale) [12, 20]: 38 and 50 and 75 and 58 and 60 (2×) and 71 and 20 and 54
Positive Mood, total score (MEQ30 subscale) [12, 20]: 26 (2×) and 21 (2×) and 29 and 27 and 16 (2×) and 30
Transcendence, total score (MEQ30 subscale) [12, 20]: 17 and 11 and 30 (2×) and 23 and 24 and 9 and 16 and 21
Ki [6]: 129 nM
half life from the blood ([13]; blood): less than 16 minutes
half life from the brain ([13]; brain): less than six
binding to the sigma-1 receptor [7]: binds to the sigma-1 receptor
Ki [14]: 517 nM
Ki [15]: 206 nM
binding to TrkB [1]: do not bind TrkB directly
